Assay results reported in patent EP0557345B1, “1,3-BIS- 3-(MONO- OR POLY-HYDROXY)ACYLAMINO-5-(MONO- OR POLY-HYDROXYALKYL)AMINOCARBONYL-2,4,6-TRIIODO-BENZOYL-AMINO]-HYDROXY- OR HYDROXYALKYL-PROPANES, THEIR METHODS OF PREPARATION AND X-RAY CONTRAST MEDIA CONTAINING THEM” (DIBRA S.p.A., priority 1990, dated 1992).
Like-named read-outs stand apart in the source and are kept apart here.

Assays:
[1] = Osmolality of the solution; format: physicochemical; details: 37°C, 300 mgI/ml
[2] = Viscosity of the solution; format: physicochemical; details: 37°C, 300 mgI/ml
[3] = Plasma kinetics after intravenous administration in rats; format: in vivo; details: rat, 200 mgI/kg; for half-life: iv
Description: The apparent volume of distribution is 123.5 ml/kg showing that the product is distributed in plasma and the extracellular spaces.

[4] = Elimination through urine and bile after administration; format: in vivo, rats; details: after 7 hours from the administration
Description: Elimination occurs mainly through urinary pathway and in less extent through the bile. After 7 hours from the administration, 76.7% of the administered dose was found in the urine and 3.5% in the bile.

mice = assay: Acute toxicity, intravenous administration in mice; format: in vivo; details: 14 days of observation
rats = assay: Acute toxicity, intracisternal administration in rats; format: in vivo; details: 7 days of observation
Solubility in water = format: physicochemical

Row | SMILES | Solubility in H₂O (Solubility in water; at 20°C) | Osmolality [1] | Viscosity [2] | other results
1 | CC(=O)N(CC(O)CN(C(C)=O)c1c(I)c(C(=O)NCC(O)CO)c(I)c(C(=O)NCC(O)CO)c1I)c1c(I)c(C(=O)NCC(O)CO)c(I)c(C(=O)NCC(O)CO)c1I (stereo not shown) [C, 1,3-bis-[N-[3,5-bis-(2,3-dihydroxy-propyl)aminocarbonyl-2,4,6-triiodo-phenyl]-acetylamino]-2-hydroxy-propane, reference compound] | – | 196 mosm/kg H₂O | 8.7 mPa·s | –
2 | C[C@H](O)C(=O)Nc1c(I)c(C(=O)NCC(O)CNC(=O)c2c(I)c(NC(=O)[C@H](C)O)c(I)c(C(=O)NC(CO)CO)c2I)c(I)c(C(=O)NC(CO)CO)c1I [Example 1, 1,3-bis-[3-(L-2-hydroxy-propionyl)amino-5-(1,3-dihydroxy-isopropyl)-aminocarbonyl-2,4,6-triiodo-benzoyl-amino]-2-hydroxy-propane] | – | 141 mosm/kg H₂O | 8.5 mPa·s | Vd ([3]; read-out: apparent volume of distribution): 0.123 L/kg; clearance ([3]; read-out: total clearance): 7.9 mL/min/kg; half-life ([3]; read-out: half life for the distribution phase): 2.9 min; half-life ([3]; read-out: half life for the elimination phase): 22.9 min; administered dose found in the bile [4]: 3.5%; administered dose found in the urine [4]: 76.7%; LD₅₀ C.L. 95% (mice): > 15000 mgI/kg; LD₅₀ C.L. 95% (rats): >900 mgI/kg
3 | C[C@H](O)C(=O)Nc1c(I)c(C(=O)NCC(O)CO)c(I)c(C(=O)N(C)CC(O)CN(C)C(=O)c2c(I)c(NC(=O)[C@H](C)O)c(I)c(C(=O)NCC(O)CO)c2I)c1I (stereo partly drawn) [Example 8, 1,3-bis-[N-methyl-N-[3-(L-2-hydroxy-propionyl)amino-5-(2,3-dihydroxy-propyl)aminocarbonyl-2,4,6-triiodobenzoyl]amino]-2-hydroxy-propane] | > 100 % w/v | – | – | –
4 | C[C@H](O)C(=O)Nc1c(I)c(C(=O)NCC(O)CNC(=O)c2c(I)c(NC(=O)CO)c(I)c(C(=O)NCC(O)CO)c2I)c(I)c(C(=O)NC(CO)CO)c1I (stereo partly drawn) [Example 10, 1-[3-(L-2-hydroxy-propionyl)amino-5-(1,3-dihydroxyisopropyl)aminocarbonyl-2,4,6-triiodo-benzoyl-amino]-3-[3-hydroxyacetylamino-5-(2,3-dihydroxy-propyl)aminocarbonyl-2,4,6-triiodo-benzoyl-amino]-2-hydroxy-propane] | – | 131 mosm/kg H₂O | 8.6 mPa·s | –
5 | C[C@H](O)C(=O)Nc1c(I)c(C(=O)NCC(O)CNC(=O)c2c(I)c(NC(=O)CO)c(I)c(C(=O)NC(CO)C(O)CO)c2I)c(I)c(C(=O)NC(CO)CO)c1I (stereo partly drawn) [Example 11, 1-[3-hydroxyacetylamino-5-(1,3,4-trihydroxy-2-butyl)aminocarbonyl-2,4,6-triiodo-benzoyl-amino]-3-[3-(L-2-hydroxy-propionyl)amino-5-(1,3-dihydroxy-isopropyl)aminocarbonyl-2,4,6-triiodo-benzoyl-amino]-2-hydroxypropane] | – | – | – | Solubility in H₂O (Solubility in water; at 25°C): > 100 % w/v
6 | CN(CC(O)CN(C)C(=O)c1c(I)c(NC(=O)CO)c(I)c(C(=O)NC(CO)C(O)CO)c1I)C(=O)c1c(I)c(NC(=O)CO)c(I)c(C(=O)NC(CO)C(O)CO)c1I (stereo not shown) [Example 16, 1,3-bis-[N-methyl-N-[3-hydroxyacetylamino-5-(1,3,4-trihydroxy-2-butyl)aminocarbonyl-2,4,6-triiodo-benzoyl]-amino]-2-hydroxy-propane] | 100 % w/v | – | – | –

Further lines, with some results ahead:

Row | Solubility in H₂O (Solubility in water; at 20°C) | SMILES | Osmolality [1] | Viscosity [2] | other results
7 | 100 % w/v | C[C@H](O)C(=O)Nc1c(I)c(C(=O)NCC(O)CNC(=O)c2c(I)c(NC(=O)[C@H](C)O)c(I)c(C(=O)NC(CO)C(O)CO)c2I)c(I)c(C(=O)NC(CO)C(O)CO)c1I (stereo partly drawn) [Example 4, 1,3-bis-[3-(L-2-hydroxy-propionyl)amino-5-(1,3,4-tri-hydroxy-2-butyl)aminocarbonyl-2,4,6-triiodo-benzoyl-amino]-2-hydroxy-propane] | – | – | –
8 | 100 % w/v | O=C(CO)Nc1c(I)c(C(=O)NCC(O)CNC(=O)c2c(I)c(NC(=O)CO)c(I)c(C(=O)NC(CO)C(O)CO)c2I)c(I)c(C(=O)NC(CO)C(O)CO)c1I (stereo not shown) [Example 15, 1,3-bis-[3-hydroxyacetylamino-5-(1,3,4-trihydroxy-2-butyl)aminocarbonyl-2,4,6-triiodo-benzoyl-amino]-2-hydroxy-propane] | – | – | –
